Measurements reported in article PMC7200681, “The calcitonin-like system is an ancient regulatory system of biomineralization” (Scientific Reports, 2020).
Bridge positions count the residues as written; N and C are the ends.

Tests used:
mussel mantle cells = test: Calcium uptake by isolated mantle cells (calcein fluorescence); assay type: cell-based, Mytilus galloprovincialis; details: CALCIIa 10 μM, 4 hours, calcein 50 mM
Procedure: Figure 7 Effect of the mussel calcitonin-like peptide on (A) calcium (ppm) concentration in the mantle edge and (B) calcium uptake by mantle cells of the Mediterranean mussel. (A) The quantity of calcium (ppm) present in the mantle edge after mussel CALCIIa peptide incubation was measured using a Microwave Plasma-Atomic Emission Spectrometer (MP-AES, Agilent) at 393.366 nm. A standard curve for calcium was performed before analysing the samples. In vitro mantle assays with CALCIIa peptide and with ouabain and control (culture medium and mantle) were repeated on at least 3 independent occasions. […] An increase in cellular fluorescence represents an increase in calcium uptake. Fluorescence of the CALCIIa peptide stimulated cells was 1.9 times higher than the control. The average mantle cell size was 3–4 μm and fluorescent images were taken using a Leica DM IL microscope coupled to a Visicam HDMI 6 digital camera and photographs were analysed using ImageJ software (v. 1.52a) to calculate the fluorescence intensity and for image overlay. […]
Mantle cells were isolated from Mediterranean mussel mantle edge explants of the posterior region and were incubated with the CALCIIa peptide. […] Photographs were analysed for image overlay and to calculate fluorescence intensity (corrected total cell fluorescence, CTCF) using ImageJ software (v. 1.52a). […]

[1] = system: mussel CALCR-like (CALCRIa, CALCRIc, CALCRIIa, CALCRIIb and CALCRIIc); test: Calcium mobilization, initial single-concentration test on the mussel receptors; assay type: cell-based; details: 10 µM peptide; % of carbachol (100uM) response; single experiment with six replicates (Supplementary Figure 7B)
Procedure: Mammalian cell cultures and transfections followed the methodology described by[89],[90]. Mammalian HEK293 cells (ECACC, UK) were used and they were maintained in complete Dulbecco’s modified Eagle’s medium (DMEM, 4.5 g/l glucose, 110 mg/l sodium pyruvate and L-glutamine, SIGMA-ALDRICH, Spain) supplemented with 10% sterile foetal bovine serum (FBS), 0.1% penicillin: streptomycin antibiotic mix (10,000 U:10 mg/ml, Sigma) and 250 μg /ml sterile filtered 1:100 amphotericin B solution (SIGMA-ALDRICH) in a humid 5% CO2 incubator (HERAEUS, Portugal) at 37 °C. […] Cell recovery was monitored daily and the medium was changed every two days until no cell death was observed. […]
HEK293 cells stably expressing five mussel receptors (CALCRIa, CALCRIc, CALCRIIa, CALCRIIb and CALCRIIc) were stimulated with the two mussel peptides and the vertebrate (human and salmon) calcitonins. Receptor activation was assessed in vitro by measuring two intracellular signalling pathways: a) production of cAMP and b) mobilization of calcium (Ca^2+). The cellular response was initially assessed using 10 μM of each peptide. […]
Stable cell lines expressing the mussel receptors were transiently co-transfected with the mitochondrial targeted apo-aequorin protein cloned in pcDNA3.1. […] Peptide potency was determined as the total area under the activation curve. Data was calculated as a % of the highest response (100% activation). […]

H-CTWGGGMSDEMCSTVDIDEIQRSFQVIHDRNSP-NH2 (disulfide 1-12 (inferred)) [CALCIIa, Mediterranean mussel calcitonin-like mature peptide, 33 aa, synthesized with disulphide bond and C-terminal amidation]
Increase in intensity of fluorescent calcium staining versus control mantle cells (mussel mantle cells; ImageJ CTCF): 1.9 times
Mean corrected total cell fluorescence (CTCF) of mantle cells (mussel mantle cells; control = 1405154): 2654581
Stimulation of mussel CALCR-like, intracellular calcium (in words) [1]: elicited a high response
